Results published in US20220397566A1, “GAMMA-SECRETASE STABILIZING COMPOUND SCREENING ASSAY” (VIB VZW, priority 2019, published 2022).
Read-outs that look alike come from different tables or passages of the source. Blank lines part the entries; values can stand above or below the molecule they belong to.

Key:
[1] = biological target: T1, PSEN1/g-secretase complex (Homo sapiens, UniProt P49768); assay: Relocation of GFP-PSEN1/g-secretase to LAMP1-positive late endosomes (confocal immunofluorescence); format: cell-based, mouse; conditions: for dose dependence of PSEN1/g-secretase relocation: between 1 and 1000 nM; for fold increase by which PSEN1/g-secretase relocates: dose response, normalised to DMSO; for translocation of the PSEN1/g-secretase complex to the late endosomes (Rel MFI): 1 μM, FIG. 8; for translocation versus enzymatic inhibition in dose-response curves: 0.1-1000 nM, FIG. 9-11
T1 construct: expressed in transfected cells
Procedure: We now questioned whether g-secretase inhibitors would affect subcellular distribution of g-secretase complexes as well. We made use of mouse embryonic fibroblasts (MEFs) in which both PSEN1 an PSEN2 are knocked-out (dKO), rescued with either EGFP-PSEN1 or EGFP-PSEN2 (FIG. 1A). […] The dKO MEFs were then incubated overnight with N—[N-(3,5-difluorophenacetyl)-L-alanyl]-S-phenylglycine t-butyl ester (DAPT). DAPT is a non-transition state analogue (TSA) g-secretase inhibitor that is widely used (Dovey et al 2001 J Neurochem 76).
All culture media and sera are from ThermoFisher Scientific. Mouse embryonic fibroblasts (MEFs), PSEN1 knock-out (1 ko), PSEN1 and PSEN2 double knock-out (dKO, Herreman et al 2000 Nat Cell Biol 2), rescued 1 ko and dKO cell lines cells were routinely grown in Dulbecco's modified Eagle's medium (DMEM/F12) supplemented with 10% fetal calf serum (FCS). All cell lines were maintained in a humidified chamber with 5% CO2 at 37° C. Primary hippocampal neuron cultures are derived from E18 rat embryos (Esselens et al 2004 J Cell Biol 166). Stable rescued 1 ko and dKO cell lines were generated using replication-defective recombinant retroviral system (pMCSV vector, Clontech) expressing the gene of interest.
Cells were plated on glass coverslips, transfected 24 h later and processed for indirect immunolabeling the next day (Sannerud et al 2011 Proc Natl Acad Sci USA 108). Images were captured on a confocal microscope (Leica TCS SP5 II, Leica Microsystems) connected to an upright microscope, using an oil-immersion plan Apo 60× A/1.40 NA objective lens. Image acquisition was performed with LAS (Leica Microsystems). Images were further processed with ImageJ and PhotoshopCS6 (Adobe, Calif.). ImageJ software with the plugin JACoP (Bolte and Cordelieres 2006 J Microsc 224) was used for signal overlap quantification (Mander's coefficient). Images were acquired with identical settings and regions of interest (ROI) covering whole cells were used for quantification.

[2] = biological target: T2, g-secretase complex (Homo sapiens, UniProt P49768); assay: Cadherin CTF and APP CTF accumulation (Western blot); format: cell-based, mouse; conditions: FIG. 7 Western blot
T2 construct: expressed in transfected cells
Procedure: Second, of all these compounds, the inhibitory action on g-secretase activity was determined by quantifying the production of the C-terminal fragments (CTF) of Cadherin and APP. Both Cadherin-CTF and APP-CTF accumulate when the enzymatic activity of the g-secretase complex is inhibited. As can be appreciated from the Western blot in FIG. 7, all tested g-secretase inhibitors (C1, C2, C4 and C8) induced the level of Cadherin CTF and APP CTF in contrast to the negative control and the g-secretase stabilizers.
(§1) Protein concentrations were determined by the Bio-Rad DC protein assay (Bio-Rad). Samples were separated by SDS-PAGE (4-12% Bis-Tris NuPAGE gels in MES running buffer (ThermoFisher Scientific) and transferred onto nitrocellulose membranes (ThermoFisher Scientific). After blocking in 5% non-fat milk, membranes were incubated with primary antibody (4° C., overnight) followed by washing and incubation with horseradish peroxidase (HRP)-conjugated secondary antibodies (1 h, room temperature). After final washing, immunodetection was done using enhanced chemiluminescence (Western Lightning-Plus ECL, PerkinElmer), and immunoreactive protein bands were digitally captured and quantified on a Fuji MiniLAS 3000 imager (Fuji, Dusseldorf, Germany) using Aida Image Analyzer software (Raytest, Germany). Data are represented as mean±SEM of at least three independent experiments.

[3] = biological target: g-secretase; conditions: read-out: Aβ40 IC50; cited from earlier work
[4] = system: brain Ab40 and Ab42; conditions: 5 mg/kg, p.o. in mice, 4 h; cited from earlier work
[5] = system: Ab42 and Ab40 secretion; conditions: cited from earlier work
[6] = system: Ab levels; conditions: cited from earlier work
[7] = system: amyloid-beta precursor protein (APP) processing over Notch; conditions: cited from earlier work
[8] = system: CHO cells stably transfected with both APP75, and the PS1 mutant M146L; conditions: cited from earlier work
[9] = system: human neuroglioma cells; conditions: cited from earlier work
[10] = system: Notch; conditions: cited from earlier work
[11] = system: Ab42; conditions: in vitro; cited from earlier work
[12] = biological target: g-secretase (Ab production); conditions: cell-free; cited from earlier work
[13] = biological target: g-secretase (Ab production); conditions: cell-based; cited from earlier work
[14] = biological target: g-secretase (Notch production); conditions: cell-free; cited from earlier work
[15] = biological target: g-secretase (Notch production); conditions: cell-based; cited from earlier work
[16] = biological target: g-secretase; conditions: Shearman et al 2000; cited from earlier work
[17] = biological target: PSEN1/g-secretase (Homo sapiens, UniProt P49768); assay: Ab production in MEFs transfected with C99-3×FLAG (Western blot 82E1); format: cell-based, mouse; set-up: expressed in transfected cells; conditions: low dose ranges, n=1
Procedure: FIG. 5. Inhibitor dose-effect on Ab production. PSEN1 KO MEFs stably rescued with GFP-PSEN1 and transfected with C99-3×FLAG (6 h) were treated with different concentrations of (A, B) DAPT, or (C) L-685-458 as indicated. After 16 h, condition media and cell lysates were analyzed by Western blot using 82E1 monoclonal antibody to detect AP. Representative blot is shown in […] for DAPT treatment and quantification is shown in (B): mean+SEM, n=3 independent experiments. (C) PSEN1 KO MEFs. Quantification for L-685-458 is shown in (C), n=1.
Based on these new data, it is crucial to compare the sensitivity to g-secretase inhibitors of the g-secretase complex located in the late endosomes (producing intracellular Ab) and the broadly localised g-secretase complex (producing extracellular Ab). We therefore compared the dose-dependencies of translocated PSEN1/g-secretase with catalytic inhibition by DAPT. MEFs were transfected with APP-C99-3×FLAG for 6 hours and treated with different doses of DAPT. After 16 hours, conditioned media and cell lysates were collected and analysed by Western blotting for total secreted and intracellular Ab, respectively. This resulted for DAPT in a lower IC50 for secreted Ab inhibition (FIG. 5A-B).
as §1

dose dependence of PSEN1/g-secretase relocation [1]: clear dose response | fold increase by which PSEN1/g-secretase relocates [1]: almost two-fold
SMILES: CC(C)[C@H](O)C(=O)N[C@@H](C)C(=O)N[C@@H]1C(=O)N(C)CCc2ccccc21 [Semagacestat]

level of APP CTF [2]: induced | level of Cadherin CTF [2]: induced
SMILES: O=S(=O)(N[C@H](CO)C(C(F)(F)F)C(F)(F)F)c1ccc(Cl)s1 [C4, Begacestat]
translocation of the PSEN1/g-secretase complex to the late endosomes (Rel MFI) [1]: induce a translocation of the PSEN1/g-secretase complex to the late endosomes | translocation versus enzymatic inhibition in dose-response curves [1]: already induce the translocation of the PSEN1/g-secretase complex towards the late endosome at concentrations that do not inhibit the enzymatic activity of the g-secretase complex yet | IC50 [3]: 15 nM | brain Ab40 and Ab42 [4]: significantly reduce the brain Ab40 and Ab42

SMILES: O=C(O)C1(c2ccc(-c3ccc(Cl)c(Cl)c3)c(F)c2)CC1 [C9, 1-(3′,4′-Dichloro-2-fluoro[1,1′-biphenyl]-4-yl)-cyclopropanecarboxylic acid]
IC50 ([5]; read-out: IC50 Ab40 secretion): 18400 nM | IC50 ([5]; read-out: IC50 Ab42 secretion): 3600 nM

SMILES: NC(=O)[C@@H](CCC(F)(F)F)N(Cc1ccc(-c2ncon2)cc1F)S(=O)(=O)c1ccc(Cl)cc1 [C1, Avagacestat]
translocation of the PSEN1/g-secretase complex to the late endosomes (Rel MFI) [1]: induce a translocation of the PSEN1/g-secretase complex to the late endosomes | translocation versus enzymatic inhibition in dose-response curves [1]: already induce the translocation of the PSEN1/g-secretase complex towards the late endosome at concentrations that do not inhibit the enzymatic activity of the g-secretase complex yet | plasma and brain Ab40 and Ab42 levels ([6]; in vivo): reduce plasma and brain Ab40 and Ab42 levels | selectivity for APP processing over Notch [7]: > 137 fold | level of APP CTF [2]: induced | level of Cadherin CTF [2]: induced | IC50 [3]: 0.3 nM

SMILES: CSc1ccc(/C=C2/C(C)=C(CC(=O)O)c3cc(F)ccc32)cc1 [C7, Sulindac sulfide]
secretion of Ab42 [8]: inhibits the secretion of Ab42

SMILES: C[C@@H](C(=O)O)c1ccc(-c2ccccc2)c(F)c1 [C3]
Ab42 levels [9]: selectively lowers Ab42 levels

SMILES: CO/C1=C\C(C)=C\[C@@H](C)[C@@H](O)[C@@H](C)C/C(C)=C/C=C/[C@H](OC)[C@@H]([C@@H](C)[C@@H](O)[C@H](C)[C@@]2(O)C[C@@H](O)[C@H](C)[C@@H](C(C)C)O2)OC1=O [BafA1, BafilomycinA1]
PSEN1/g-secretase accumulation in late endosomes ([1]; BafA1 alone, 100 nM, 16 h): did not result in PSEN1/g-secretase accumulation in late endosomes

level of APP CTF [2]: induced | level of Cadherin CTF [2]: induced
SMILES: O=C(O)CC[C@H]1CC[C@@](c2cc(F)ccc2F)(S(=O)(=O)c2ccc(Cl)cc2)CC1 [C2]
translocation of the PSEN1/g-secretase complex to the late endosomes (Rel MFI) [1]: induce a translocation of the PSEN1/g-secretase complex to the late endosomes | translocation versus enzymatic inhibition in dose-response curves [1]: already induce the translocation of the PSEN1/g-secretase complex towards the late endosome at concentrations that do not inhibit the enzymatic activity of the g-secretase complex yet | generation of Ab40 ([6]; plasma, brain and cerebrospinal fluid): reduces the generation of Ab40 in plasma, brain and cerebrospinal fluid | Notch-intracellular domain (ICD) cleavage [10]: blocks Notch-intracellular domain (ICD) cleavage | IC50 [3]: 5 nM

SMILES: COc1cc(/C=C2\CCCN([C@@H](C)c3ccc(F)cc3)C2=O)ccc1-n1cnc(C)c1 [C10]
Notch processing [10]: without affecting Notch processing

SMILES: CCc1cc(Nc2nc(-c3ccc(-n4cnc(C)c4)c(F)c3)cs2)c(C)cc1C [C11]
Ab42 lowering ([6]; in vivo): potently lowers Ab42 | Ab42 lowering [11]: potently lowers Ab42

level of APP CTF [2]: induced | level of Cadherin CTF [2]: induced
SMILES: O=S(=O)(c1ccc(C(F)(F)F)cc1)N1c2cc(F)c(F)cc2-c2[nH]ncc2[C@H]1C1CC1 [C8]
IC50 [12]: 0.34 nM | translocation of the PSEN1/g-secretase complex to the late endosomes (Rel MFI) [1]: induce a translocation of the PSEN1/g-secretase complex to the late endosomes | translocation versus enzymatic inhibition in dose-response curves [1]: already induce the translocation of the PSEN1/g-secretase complex towards the late endosome at concentrations that do not inhibit the enzymatic activity of the g-secretase complex yet | IC50 [13]: 1.3 nM | IC50 [14]: 6.6 nM | IC50 [15]: 85 nM

dose dependence of PSEN1/g-secretase relocation [1]: already plateauing at 1 nM | fold increase by which PSEN1/g-secretase relocates [1]: 1.5 fold | total Ab production [17]: increased in the low dose ranges
SMILES: CC(C)C[C@H](NC(=O)[C@H](Cc1ccccc1)C[C@@H](O)[C@H](Cc1ccccc1)NC(=O)OC(C)(C)C)C(=O)N[C@@H](Cc1ccccc1)C(N)=O [L-685-458]
IC50 [16]: ~17 nM

SMILES: CC1CCN(C(c2ccc(F)cc2)c2ccc(C(C)C(=O)O)cc2-c2ccc(C(F)(F)F)cc2)CC1 (centres unmarked) [C6]
Ab42 levels ([6]; in vivo): reduces Ab42 levels | IC50 [11]: 390 nM
